In ChEMBL document CHEMBL4507261, “Data for DCP probe A-192621” (2021):

Tests used:
[1] = molecular target: GABA-A receptor; anion channel (Rattus norvegicus) (UniProt O09028+P15431+P18506+P18508+P19969+P20236+P23574+P23576+P28471+P28473+P30191+P62813+P63079+P63138+Q91ZM7+Q9ES14); experiment: BZD (central) Eurofins-Cerep binding assay; type: protein-complex assay; parameters: ligand concentration 0.4 nM; details: filed as agonist, Compound concentration 10.0 uM
[2] = molecular target: T1, Muscarinic acetylcholine receptor M2 (Homo sapiens) (UniProt P08172); experiment: M2 (h) Eurofins-Cerep binding assay; parameters: ligand concentration 2 nM; details: filed as antagonist, Compound concentration 10.0 uM
T1 sequence (whole entry): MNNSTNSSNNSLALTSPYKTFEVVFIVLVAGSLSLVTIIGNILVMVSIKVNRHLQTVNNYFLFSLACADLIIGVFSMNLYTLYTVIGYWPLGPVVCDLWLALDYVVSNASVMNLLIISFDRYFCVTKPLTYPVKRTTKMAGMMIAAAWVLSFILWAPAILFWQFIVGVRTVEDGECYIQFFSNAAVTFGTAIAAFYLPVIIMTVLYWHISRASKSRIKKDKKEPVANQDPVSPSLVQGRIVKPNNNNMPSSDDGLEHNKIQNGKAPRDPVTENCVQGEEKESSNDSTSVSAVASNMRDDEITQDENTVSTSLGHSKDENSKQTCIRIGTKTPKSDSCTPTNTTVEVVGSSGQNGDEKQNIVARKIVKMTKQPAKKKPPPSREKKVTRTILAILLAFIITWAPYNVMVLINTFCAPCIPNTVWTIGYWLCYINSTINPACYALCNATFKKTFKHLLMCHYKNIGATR

[3] = test system: Tyrosine-protein kinase ABL1 (Homo sapiens), P00519 [F317L]; details: Compound concentration 1000.0 nM
[4] = test system: Tyrosine-protein kinase ABL1 (Homo sapiens), P00519 [H396P]; details: Compound concentration 1000.0 nM
[5] = molecular target: Aurora kinase A (Homo sapiens) (UniProt O14965); details: Compound concentration 1000.0 nM
[6] = molecular target: BMP-2-inducible protein kinase (Homo sapiens) (UniProt Q9NSY1); details: Compound concentration 1000.0 nM
[7] = molecular target: Cytoplasmic tyrosine-protein kinase BMX (Homo sapiens) (UniProt P51813); details: Compound concentration 1000.0 nM
[8] = molecular target: Calcium/calmodulin-dependent protein kinase type 1B (Homo sapiens) (UniProt Q6P2M8); details: Compound concentration 1000.0 nM
[9] = molecular target: Macrophage colony-stimulating factor 1 receptor (Homo sapiens) (UniProt P07333); details: Compound concentration 1000.0 nM
Sequence of Macrophage colony-stimulating factor 1 receptor (Homo sapiens) (P07333 whole entry): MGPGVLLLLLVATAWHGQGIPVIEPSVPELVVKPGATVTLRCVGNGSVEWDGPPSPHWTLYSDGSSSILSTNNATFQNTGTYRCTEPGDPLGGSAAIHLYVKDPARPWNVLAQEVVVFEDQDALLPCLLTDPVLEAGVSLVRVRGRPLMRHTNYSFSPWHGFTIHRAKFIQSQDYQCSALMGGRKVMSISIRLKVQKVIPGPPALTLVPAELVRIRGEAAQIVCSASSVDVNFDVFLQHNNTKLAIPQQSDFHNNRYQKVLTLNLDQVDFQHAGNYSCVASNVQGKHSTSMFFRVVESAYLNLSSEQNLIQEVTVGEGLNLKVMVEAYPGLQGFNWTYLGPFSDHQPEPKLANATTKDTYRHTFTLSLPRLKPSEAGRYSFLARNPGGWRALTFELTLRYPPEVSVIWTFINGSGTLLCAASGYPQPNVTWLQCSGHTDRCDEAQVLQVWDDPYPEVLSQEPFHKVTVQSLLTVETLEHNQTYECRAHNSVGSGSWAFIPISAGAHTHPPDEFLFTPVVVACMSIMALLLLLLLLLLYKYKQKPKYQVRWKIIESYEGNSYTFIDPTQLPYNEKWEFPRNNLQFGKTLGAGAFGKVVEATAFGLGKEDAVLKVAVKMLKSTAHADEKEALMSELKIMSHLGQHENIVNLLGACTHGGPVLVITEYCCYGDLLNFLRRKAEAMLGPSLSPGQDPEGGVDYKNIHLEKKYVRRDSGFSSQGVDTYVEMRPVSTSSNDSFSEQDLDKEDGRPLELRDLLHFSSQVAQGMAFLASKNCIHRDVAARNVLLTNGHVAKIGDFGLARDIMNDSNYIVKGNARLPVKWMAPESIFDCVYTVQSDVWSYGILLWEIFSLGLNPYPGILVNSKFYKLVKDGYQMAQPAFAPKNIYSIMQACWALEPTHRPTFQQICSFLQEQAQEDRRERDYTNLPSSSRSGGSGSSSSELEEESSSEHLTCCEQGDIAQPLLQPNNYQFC

[10] = molecular target: Dual specificity tyrosine-phosphorylation-regulated kinase 1B (Homo sapiens) (UniProt Q9Y463); details: Compound concentration 1000.0 nM
[11] = molecular target: Glycogen synthase kinase-3 alpha (Homo sapiens) (UniProt P49840); details: Compound concentration 1000.0 nM
[12] = molecular target: Homeodomain-interacting protein kinase 3 (Homo sapiens) (UniProt Q9H422); details: Compound concentration 1000.0 nM
[13] = molecular target: Inhibitor of nuclear factor kappa-B kinase subunit alpha (Homo sapiens) (UniProt O15111); details: Compound concentration 1000.0 nM
[14] = molecular target: Tyrosine-protein kinase JAK3 (Homo sapiens) (UniProt P52333); details: Compound concentration 1000.0 nM
[15] = test system: Mast/stem cell growth factor receptor Kit (Homo sapiens), P10721 [A829P]; details: Compound concentration 1000.0 nM
Sequence of Mast/stem cell growth factor receptor Kit (Homo sapiens), P10721 [A829P] (P10721 whole entry A829P): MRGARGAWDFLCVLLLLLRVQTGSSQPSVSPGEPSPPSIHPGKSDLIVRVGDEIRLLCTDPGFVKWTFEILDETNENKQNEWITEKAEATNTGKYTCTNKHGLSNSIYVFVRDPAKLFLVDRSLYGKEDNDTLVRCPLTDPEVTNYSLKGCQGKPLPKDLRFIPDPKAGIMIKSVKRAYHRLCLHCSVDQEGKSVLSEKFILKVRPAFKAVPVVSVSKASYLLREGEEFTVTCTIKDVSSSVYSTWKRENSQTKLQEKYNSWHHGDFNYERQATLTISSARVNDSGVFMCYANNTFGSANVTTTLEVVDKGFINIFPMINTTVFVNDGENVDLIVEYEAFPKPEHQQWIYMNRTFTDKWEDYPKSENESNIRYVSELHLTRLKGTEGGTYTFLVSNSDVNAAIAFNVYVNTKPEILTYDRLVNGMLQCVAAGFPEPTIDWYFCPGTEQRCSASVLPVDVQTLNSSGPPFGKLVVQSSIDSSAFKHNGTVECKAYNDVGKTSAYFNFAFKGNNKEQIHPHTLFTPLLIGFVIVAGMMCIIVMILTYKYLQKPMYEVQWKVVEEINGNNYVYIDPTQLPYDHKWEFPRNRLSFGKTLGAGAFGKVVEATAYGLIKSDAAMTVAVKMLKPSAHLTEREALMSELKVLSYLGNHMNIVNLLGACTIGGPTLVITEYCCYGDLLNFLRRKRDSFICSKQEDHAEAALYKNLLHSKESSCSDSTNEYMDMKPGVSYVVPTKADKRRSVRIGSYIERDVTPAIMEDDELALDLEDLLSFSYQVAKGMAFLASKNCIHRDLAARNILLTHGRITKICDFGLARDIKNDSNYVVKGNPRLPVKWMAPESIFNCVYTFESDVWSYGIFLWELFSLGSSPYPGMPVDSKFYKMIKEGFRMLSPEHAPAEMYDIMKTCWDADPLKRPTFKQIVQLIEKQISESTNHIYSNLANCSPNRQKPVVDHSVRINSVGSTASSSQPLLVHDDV

[16] = test system: Mast/stem cell growth factor receptor Kit (Homo sapiens), P10721 [V559D,V654A]; details: Compound concentration 1000.0 nM
Sequence of Mast/stem cell growth factor receptor Kit (Homo sapiens), P10721 [V559D,V654A] (P10721 whole entry V559D/V654A): as the sequence (P10721 whole entry A829P) above, with V559D, V654A, P829A counted along it

[17] = molecular target: Mitogen-activated protein kinase kinase kinase kinase 2 (Homo sapiens) (UniProt Q12851); details: Compound concentration 1000.0 nM
[18] = molecular target: MAP kinase-interacting serine/threonine-protein kinase 1 (Homo sapiens) (UniProt Q9BUB5); details: Compound concentration 1000.0 nM
[19] = molecular target: Mitogen-activated protein kinase kinase kinase 11 (Homo sapiens) (UniProt Q16584); details: Compound concentration 1000.0 nM
[20] = molecular target: Mitogen-activated protein kinase kinase kinase 14 (Homo sapiens) (UniProt Q99558); details: Compound concentration 1000.0 nM
[21] = molecular target: Serine/threonine-protein kinase OSR1 (Homo sapiens) (UniProt O95747); details: Compound concentration 1000.0 nM
[22] = molecular target: Serine/threonine-protein kinase PAK 1 (Homo sapiens) (UniProt Q13153); details: Compound concentration 1000.0 nM
Sequence of Serine/threonine-protein kinase PAK 1 (Homo sapiens) (Q13153 whole entry): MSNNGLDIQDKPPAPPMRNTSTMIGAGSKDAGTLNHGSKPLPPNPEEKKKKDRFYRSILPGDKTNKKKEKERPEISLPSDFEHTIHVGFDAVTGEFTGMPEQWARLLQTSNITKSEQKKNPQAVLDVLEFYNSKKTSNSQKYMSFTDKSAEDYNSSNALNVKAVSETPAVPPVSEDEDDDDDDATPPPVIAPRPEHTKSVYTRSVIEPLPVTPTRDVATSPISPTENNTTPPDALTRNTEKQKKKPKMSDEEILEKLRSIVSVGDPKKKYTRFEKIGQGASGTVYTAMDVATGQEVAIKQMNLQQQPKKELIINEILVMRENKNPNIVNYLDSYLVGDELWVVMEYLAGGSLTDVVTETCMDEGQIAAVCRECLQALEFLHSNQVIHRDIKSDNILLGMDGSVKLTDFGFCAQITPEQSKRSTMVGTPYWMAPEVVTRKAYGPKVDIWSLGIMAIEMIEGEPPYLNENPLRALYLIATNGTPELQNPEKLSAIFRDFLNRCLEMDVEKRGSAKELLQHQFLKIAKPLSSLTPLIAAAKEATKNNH

[23] = molecular target: Serine/threonine-protein kinase PAK 3 (Homo sapiens) (UniProt O75914); details: Compound concentration 1000.0 nM
[24] = molecular target: Serine/threonine-protein kinase pim-1 (Homo sapiens) (UniProt P11309); details: Compound concentration 1000.0 nM
Sequence of Serine/threonine-protein kinase pim-1 (Homo sapiens) (P11309 whole entry, looked up): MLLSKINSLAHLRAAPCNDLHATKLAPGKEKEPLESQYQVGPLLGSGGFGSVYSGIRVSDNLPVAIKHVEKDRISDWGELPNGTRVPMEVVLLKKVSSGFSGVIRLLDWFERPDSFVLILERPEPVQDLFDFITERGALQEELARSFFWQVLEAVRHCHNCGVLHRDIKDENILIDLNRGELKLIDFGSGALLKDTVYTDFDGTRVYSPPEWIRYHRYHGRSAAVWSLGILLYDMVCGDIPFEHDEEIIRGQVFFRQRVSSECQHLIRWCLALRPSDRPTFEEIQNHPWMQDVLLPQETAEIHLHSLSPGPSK

[25] = molecular target: Serine/threonine-protein kinase N2 (Homo sapiens) (UniProt Q16513); details: Compound concentration 1000.0 nM
[26] = molecular target: Serine/threonine-protein kinase PknB (Mycobacterium tuberculosis) (UniProt P9WI81); details: Compound concentration 1000.0 nM
[27] = molecular target: Protein kinase C epsilon type (Homo sapiens) (UniProt Q02156); details: Compound concentration 1000.0 nM
[28] = molecular target: Protein kinase C theta type (Homo sapiens) (UniProt Q04759); details: Compound concentration 1000.0 nM
Sequence of Protein kinase C theta type (Homo sapiens) (Q04759 whole entry, looked up): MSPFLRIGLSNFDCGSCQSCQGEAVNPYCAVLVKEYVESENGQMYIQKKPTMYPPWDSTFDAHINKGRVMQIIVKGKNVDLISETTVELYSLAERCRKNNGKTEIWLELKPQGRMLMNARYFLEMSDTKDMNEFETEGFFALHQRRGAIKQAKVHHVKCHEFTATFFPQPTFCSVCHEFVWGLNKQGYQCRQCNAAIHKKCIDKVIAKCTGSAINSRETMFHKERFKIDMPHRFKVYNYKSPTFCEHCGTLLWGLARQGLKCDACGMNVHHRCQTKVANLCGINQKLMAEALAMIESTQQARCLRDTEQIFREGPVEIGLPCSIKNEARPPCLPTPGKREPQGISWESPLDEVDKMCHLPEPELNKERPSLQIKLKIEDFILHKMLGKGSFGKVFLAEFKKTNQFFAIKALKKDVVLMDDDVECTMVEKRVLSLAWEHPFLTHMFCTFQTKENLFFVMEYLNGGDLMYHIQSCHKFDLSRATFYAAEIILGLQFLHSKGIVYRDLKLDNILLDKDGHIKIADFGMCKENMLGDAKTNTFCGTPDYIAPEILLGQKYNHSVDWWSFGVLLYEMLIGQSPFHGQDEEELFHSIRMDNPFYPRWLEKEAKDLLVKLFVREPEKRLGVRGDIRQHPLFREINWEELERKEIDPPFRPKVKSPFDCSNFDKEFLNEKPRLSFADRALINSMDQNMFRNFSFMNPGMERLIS

[29] = molecular target: Serine/threonine-protein kinase PRP4 homolog (Homo sapiens) (UniProt Q13523); details: Compound concentration 1000.0 nM
Sequence of Serine/threonine-protein kinase PRP4 homolog (Homo sapiens) (Q13523 whole entry): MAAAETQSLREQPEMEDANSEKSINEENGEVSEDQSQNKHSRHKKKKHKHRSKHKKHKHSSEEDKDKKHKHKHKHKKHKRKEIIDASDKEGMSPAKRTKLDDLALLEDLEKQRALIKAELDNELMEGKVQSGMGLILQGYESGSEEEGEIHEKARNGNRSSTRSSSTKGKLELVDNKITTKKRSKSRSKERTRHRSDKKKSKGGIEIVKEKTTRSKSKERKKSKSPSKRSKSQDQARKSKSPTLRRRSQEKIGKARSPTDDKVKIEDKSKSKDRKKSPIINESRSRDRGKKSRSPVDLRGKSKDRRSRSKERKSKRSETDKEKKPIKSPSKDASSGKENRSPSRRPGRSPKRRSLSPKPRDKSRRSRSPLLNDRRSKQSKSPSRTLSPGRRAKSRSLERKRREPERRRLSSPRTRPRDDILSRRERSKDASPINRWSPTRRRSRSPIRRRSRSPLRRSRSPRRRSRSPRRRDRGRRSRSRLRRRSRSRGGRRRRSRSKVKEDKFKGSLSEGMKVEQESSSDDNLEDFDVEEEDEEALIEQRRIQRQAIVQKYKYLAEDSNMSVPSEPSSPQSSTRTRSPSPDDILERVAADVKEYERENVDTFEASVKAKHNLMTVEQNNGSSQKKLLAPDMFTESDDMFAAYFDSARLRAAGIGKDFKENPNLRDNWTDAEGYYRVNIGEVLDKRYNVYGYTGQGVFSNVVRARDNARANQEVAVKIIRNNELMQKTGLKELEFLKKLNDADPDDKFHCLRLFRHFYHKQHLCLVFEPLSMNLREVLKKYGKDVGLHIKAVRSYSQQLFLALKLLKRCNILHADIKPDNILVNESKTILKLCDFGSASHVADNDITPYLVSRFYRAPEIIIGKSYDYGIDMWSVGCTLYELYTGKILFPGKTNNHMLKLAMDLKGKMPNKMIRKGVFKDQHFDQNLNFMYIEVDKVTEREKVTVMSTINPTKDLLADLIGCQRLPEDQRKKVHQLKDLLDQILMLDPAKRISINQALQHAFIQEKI

[30] = molecular target: STE20/SPS1-related proline-alanine-rich protein kinase (Homo sapiens) (UniProt Q9UEW8); details: Compound concentration 1000.0 nM
[31] = molecular target: Serine/threonine-protein kinase TAO3 (Homo sapiens) (UniProt Q9H2K8); details: Compound concentration 1000.0 nM
[32] = molecular target: Tyrosine-protein kinase Tec (Homo sapiens) (UniProt P42680); details: Compound concentration 1000.0 nM
[33] = molecular target: Serine/threonine-protein kinase tousled-like 1 (Homo sapiens) (UniProt Q9UKI8); details: Compound concentration 1000.0 nM
[34] = molecular target: Non-receptor tyrosine-protein kinase TNK1 (Homo sapiens) (UniProt Q13470); details: Compound concentration 1000.0 nM
[35] = molecular target: Non-receptor tyrosine-protein kinase TYK2 (Homo sapiens) (UniProt P29597); details: Compound concentration 1000.0 nM
[36] = molecular target: Tyrosine-protein kinase receptor TYRO3 (Homo sapiens) (UniProt Q06418); details: Compound concentration 1000.0 nM
[37] = molecular target: Serine/threonine-protein kinase 32C (Homo sapiens) (UniProt Q86UX6); details: Compound concentration 1000.0 nM
Sequence of Serine/threonine-protein kinase 32C (Homo sapiens) (Q86UX6 whole entry): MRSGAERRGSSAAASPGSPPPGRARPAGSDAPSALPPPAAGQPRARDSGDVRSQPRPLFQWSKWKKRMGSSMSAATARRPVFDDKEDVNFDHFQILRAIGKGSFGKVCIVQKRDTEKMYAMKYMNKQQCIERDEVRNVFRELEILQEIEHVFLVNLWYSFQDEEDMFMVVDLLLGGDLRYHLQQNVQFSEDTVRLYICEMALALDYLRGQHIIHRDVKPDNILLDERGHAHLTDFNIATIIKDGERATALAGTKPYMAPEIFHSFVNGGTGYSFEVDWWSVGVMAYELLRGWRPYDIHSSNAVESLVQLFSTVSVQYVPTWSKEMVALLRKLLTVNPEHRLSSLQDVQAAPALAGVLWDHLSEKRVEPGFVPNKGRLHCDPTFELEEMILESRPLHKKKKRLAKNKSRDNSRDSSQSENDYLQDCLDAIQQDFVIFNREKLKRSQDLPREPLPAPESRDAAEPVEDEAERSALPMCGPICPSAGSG

SMILES | % Inhibition of Control Specific Binding (Mean n=2) [1] [%] | % Inhibition of Control Specific Binding (Mean n=2) [2] [%] | residual activity [3] [%] | residual activity [4] [%] | residual activity [5] [%] | residual activity [6] [%] | residual activity [7] [%] | residual activity [8] [%] | residual activity [9] [%] | residual activity [10] [%] | residual activity [11] [%] | residual activity [12] [%] | residual activity [13] [%] | residual activity [14] [%] | residual activity [15] [%] | residual activity [16] [%] | residual activity [17] [%] | residual activity [18] [%] | residual activity [19] [%] | residual activity [20] [%] | further results
CCCOc1ccc([C@H]2[C@H](C(=O)O)[C@@H](c3ccc4c(c3)OCO4)CN2CC(=O)Nc2c(CC)cccc2CC)cc1 [A-192621] | -35.5 | -8.8 | 62 | 63 | 93 | 87 | 100 | 77 | 90 | 100 | 86 | 74 | 77 | 84 | 63 | 98 | 79 | 65 | 100 | 85 | residual activity [21]: 75%; residual activity [22]: 89%; residual activity [23]: 100%; residual activity [24]: 85%; residual activity [25]: 100%; residual activity [26]: 78%; residual activity [27]: 74%; residual activity [28]: 81%; residual activity [29]: 82%; residual activity [30]: 58%; residual activity [31]: 81%; residual activity [32]: 100%; residual activity [33]: 74%; residual activity [34]: 100%; residual activity [35]: 51%; residual activity [36]: 100%; residual activity [37]: 100%
CCCOc1ccc([C@@H]2[C@@H](C(=O)O)[C@H](c3ccc4c(c3)OCO4)CN2CC(=O)Nc2c(CC)cccc2CC)cc1 [A-1806262] | -12.9 | -7.1 | 82 | 89 | 94 | 92 | 100 | 100 | 100 | 99 | 100 | 85 | 86 | 73 | 66 | 94 | 98 | 73 | 100 | 82 | residual activity [21]: 79%; residual activity [22]: 98%; residual activity [23]: 77%; residual activity [24]: 89%; residual activity [25]: 100%; residual activity [26]: 98%; residual activity [27]: 97%; residual activity [28]: 100%; residual activity [29]: 100%; residual activity [30]: 78%; residual activity [31]: 100%; residual activity [32]: 96%; residual activity [33]: 77%; residual activity [34]: 93%; residual activity [35]: 74%; residual activity [36]: 94%; residual activity [37]: 100%
